Test results taken from PMC10303271, “Synthesis and Receptor Binding Studies of α5 GABAAR Selective Novel Imidazodiazepines Targeted for Psychiatric and Cognitive Disorders” (Molecules, 2023).
Like-named read-outs stand apart in the source and are kept apart here.

How the values were obtained:
[1] = target: T1, Alpha2Beta2 (Rattus norvegicus, UniProt P12389+P12390); assay: PDSP primary binding Alpha2Beta2; conditions: primary binding, 10,000 nM; last figure of the line = mean of the 4 before it; read-out: Alpha2Beta2, PDSP raw data, mean
T1 construct: purchased NIMH Psychoactive Drug Screening Program (PDSP)
T1 sequence (P12389 28-511): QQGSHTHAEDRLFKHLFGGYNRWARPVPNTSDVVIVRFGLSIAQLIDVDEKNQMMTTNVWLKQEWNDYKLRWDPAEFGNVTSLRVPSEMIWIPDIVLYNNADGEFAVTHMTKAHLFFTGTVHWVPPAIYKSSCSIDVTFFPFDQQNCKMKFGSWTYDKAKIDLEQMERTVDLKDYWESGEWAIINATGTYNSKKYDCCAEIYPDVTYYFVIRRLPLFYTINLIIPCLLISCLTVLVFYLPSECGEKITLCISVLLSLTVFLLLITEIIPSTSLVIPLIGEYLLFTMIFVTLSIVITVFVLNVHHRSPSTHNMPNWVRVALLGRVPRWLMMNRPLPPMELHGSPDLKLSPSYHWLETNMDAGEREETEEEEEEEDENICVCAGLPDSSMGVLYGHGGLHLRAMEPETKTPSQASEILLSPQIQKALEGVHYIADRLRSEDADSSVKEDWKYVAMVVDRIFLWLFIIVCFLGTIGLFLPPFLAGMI
T1 sequence (P12390 25-500): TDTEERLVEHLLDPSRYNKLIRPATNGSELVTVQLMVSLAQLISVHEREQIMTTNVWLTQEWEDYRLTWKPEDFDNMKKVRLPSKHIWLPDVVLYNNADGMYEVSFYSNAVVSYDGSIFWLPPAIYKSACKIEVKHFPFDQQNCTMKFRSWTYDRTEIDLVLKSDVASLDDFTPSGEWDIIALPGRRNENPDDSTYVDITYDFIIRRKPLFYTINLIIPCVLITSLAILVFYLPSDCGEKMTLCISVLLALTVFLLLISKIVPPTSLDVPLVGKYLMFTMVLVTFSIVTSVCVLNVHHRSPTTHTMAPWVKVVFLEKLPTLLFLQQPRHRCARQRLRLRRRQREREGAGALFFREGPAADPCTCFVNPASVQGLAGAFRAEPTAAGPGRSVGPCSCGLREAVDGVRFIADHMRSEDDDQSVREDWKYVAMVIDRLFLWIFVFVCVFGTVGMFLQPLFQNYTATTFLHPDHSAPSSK
Protocol: (§1) To determine if any off-target receptor-binding effects are present, all the novel ligands were sent to the National Institute of Mental Health (NIMH), Psychoactive Drug Screening Program (PDSP). The ligands were screened over a panel of 47 receptors, ion channels, and transporters to determine any other possible interactions with […]. The hERG-binding was also determined. […] No binding of the test compounds to calcium channels was observed. […] It is necessary to screen the compounds for hERG-binding during the early process of drug discovery. The unintentional binding of many drugs to hERG can cause blockade of hERG K+ channels in the heart, which can cause many side effects including cardiac arrhythmias and sudden death. […] All of the α5 imidazodiazepines were tested for hERG-binding.
(§2) The NIMH PDSP assay protocol book [https://kidbdev.med.unc.edu/databases/PDSP%20Protocols%20II%202013-03-28.pdf accessed on 23 April 2023]. describes the protocols for primary and secondary radio-ligand binding assays. These assays were carried out in a final volume of 125 µL per well in the appropriate binding buffer.
(§3) The binding of a ligand to a receptor, ion channel, or transporter was determined in the […] of 10 µM of the appropriate reference compound. […] Plates were incubated in the dark for 90 min at rt, and the reactions were stopped by vacuum filtration onto 0.3% polyethyleneimine (PEI) soaked 96-well filter mats using a 96-well Filtermateharvester. This was followed by three washes with cold PBS buffer. Radioactivity was then counted on a Microbeta counter. Nonlinear regression was used to analyze the data with N = 6 replicates.

[2] = tested on: AMPA; assay: PDSP primary binding AMPA; conditions: primary binding, 10,000 nM; last figure of the line = mean of the 4 before it
Protocol: as §1, §2, §3

[3] = target: T2, Alpha4Beta4 (Rattus norvegicus, UniProt P09483+P12392); assay: PDSP primary binding Alpha4Beta4; conditions: primary binding, 10,000 nM; last figure of the line = mean of the 4 before it; read-out: Alpha4Beta4, PDSP raw data, mean
T2 construct: purchased NIMH Psychoactive Drug Screening Program (PDSP)
T2 sequence (P09483 31-630): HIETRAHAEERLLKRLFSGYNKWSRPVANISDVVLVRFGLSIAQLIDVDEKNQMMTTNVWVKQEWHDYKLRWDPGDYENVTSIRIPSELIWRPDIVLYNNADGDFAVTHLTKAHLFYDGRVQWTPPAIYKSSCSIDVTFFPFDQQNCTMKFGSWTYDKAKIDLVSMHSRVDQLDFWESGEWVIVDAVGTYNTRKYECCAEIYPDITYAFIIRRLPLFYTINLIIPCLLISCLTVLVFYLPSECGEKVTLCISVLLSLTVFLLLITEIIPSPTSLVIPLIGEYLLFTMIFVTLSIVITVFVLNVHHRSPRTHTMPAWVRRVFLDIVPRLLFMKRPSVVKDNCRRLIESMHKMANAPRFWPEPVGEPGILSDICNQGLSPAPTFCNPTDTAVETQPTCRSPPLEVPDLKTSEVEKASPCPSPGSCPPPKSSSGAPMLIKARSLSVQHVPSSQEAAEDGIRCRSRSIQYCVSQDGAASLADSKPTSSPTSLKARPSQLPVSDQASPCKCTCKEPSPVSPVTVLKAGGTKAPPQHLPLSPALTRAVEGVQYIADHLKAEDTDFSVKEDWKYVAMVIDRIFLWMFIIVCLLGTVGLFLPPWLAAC
T2 sequence (P12392 21-495): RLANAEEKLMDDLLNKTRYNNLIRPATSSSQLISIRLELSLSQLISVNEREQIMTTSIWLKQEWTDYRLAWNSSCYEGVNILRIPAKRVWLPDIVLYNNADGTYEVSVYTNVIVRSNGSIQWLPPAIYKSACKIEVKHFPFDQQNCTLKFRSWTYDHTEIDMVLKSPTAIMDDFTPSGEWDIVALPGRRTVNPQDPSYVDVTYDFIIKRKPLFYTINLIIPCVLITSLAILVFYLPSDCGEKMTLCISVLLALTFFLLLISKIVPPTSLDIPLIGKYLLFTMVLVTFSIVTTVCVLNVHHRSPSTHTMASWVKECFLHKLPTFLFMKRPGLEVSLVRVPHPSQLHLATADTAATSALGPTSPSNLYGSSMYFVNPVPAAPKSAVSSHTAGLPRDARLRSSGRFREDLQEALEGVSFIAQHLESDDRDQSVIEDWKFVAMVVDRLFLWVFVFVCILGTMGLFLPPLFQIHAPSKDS
Protocol: as §1, §2, §3

[4] = target: T3, hERG channels (Homo sapiens, UniProt Q12809); assay: PDSP radioligand binding at hERG; conditions: primary binding, 10,000 nM; last figure of the line = mean of the 4 before it
T3 construct: purchased NIMH Psychoactive Drug Screening Program (PDSP)
T3 sequence (Q12809 whole entry): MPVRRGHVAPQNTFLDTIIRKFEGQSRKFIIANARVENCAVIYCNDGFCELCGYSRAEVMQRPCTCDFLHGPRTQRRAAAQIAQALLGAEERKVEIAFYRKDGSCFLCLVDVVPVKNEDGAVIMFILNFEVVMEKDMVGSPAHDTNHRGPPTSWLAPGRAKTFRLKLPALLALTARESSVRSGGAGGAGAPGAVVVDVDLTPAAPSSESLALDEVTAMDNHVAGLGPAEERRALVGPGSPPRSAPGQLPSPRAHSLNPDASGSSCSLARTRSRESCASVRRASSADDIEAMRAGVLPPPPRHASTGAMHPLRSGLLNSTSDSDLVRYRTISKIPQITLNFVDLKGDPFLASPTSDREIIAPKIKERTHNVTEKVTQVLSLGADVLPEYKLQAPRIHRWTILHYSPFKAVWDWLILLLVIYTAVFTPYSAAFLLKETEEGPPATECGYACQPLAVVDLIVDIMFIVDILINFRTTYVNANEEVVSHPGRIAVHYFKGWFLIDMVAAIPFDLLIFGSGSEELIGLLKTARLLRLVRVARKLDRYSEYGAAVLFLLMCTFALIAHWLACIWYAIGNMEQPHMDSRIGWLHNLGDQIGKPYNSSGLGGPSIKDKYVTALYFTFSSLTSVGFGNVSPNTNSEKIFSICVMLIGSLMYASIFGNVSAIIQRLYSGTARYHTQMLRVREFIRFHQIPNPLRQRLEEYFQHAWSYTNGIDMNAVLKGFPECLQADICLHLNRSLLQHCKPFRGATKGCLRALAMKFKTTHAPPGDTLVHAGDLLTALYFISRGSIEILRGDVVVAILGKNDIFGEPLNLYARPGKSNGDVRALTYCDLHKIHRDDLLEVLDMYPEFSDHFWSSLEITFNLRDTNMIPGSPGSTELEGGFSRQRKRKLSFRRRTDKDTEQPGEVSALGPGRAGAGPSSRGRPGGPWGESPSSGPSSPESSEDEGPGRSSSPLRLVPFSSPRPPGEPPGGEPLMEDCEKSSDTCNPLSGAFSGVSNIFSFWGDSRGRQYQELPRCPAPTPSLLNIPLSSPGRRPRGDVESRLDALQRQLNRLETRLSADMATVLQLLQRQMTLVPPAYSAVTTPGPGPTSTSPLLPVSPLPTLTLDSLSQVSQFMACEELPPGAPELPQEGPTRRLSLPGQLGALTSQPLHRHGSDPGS
Protocol: as §1, §2, §3

[5] = target: T4, M2 (Homo sapiens, UniProt P08172); assay: PDSP primary binding M2; conditions: primary binding, 10,000 nM; last figure of the line = mean of the 4 before it; read-out: M2, PDSP raw data, mean
T4 construct: purchased NIMH Psychoactive Drug Screening Program (PDSP)
T4 sequence (P08172 1-466): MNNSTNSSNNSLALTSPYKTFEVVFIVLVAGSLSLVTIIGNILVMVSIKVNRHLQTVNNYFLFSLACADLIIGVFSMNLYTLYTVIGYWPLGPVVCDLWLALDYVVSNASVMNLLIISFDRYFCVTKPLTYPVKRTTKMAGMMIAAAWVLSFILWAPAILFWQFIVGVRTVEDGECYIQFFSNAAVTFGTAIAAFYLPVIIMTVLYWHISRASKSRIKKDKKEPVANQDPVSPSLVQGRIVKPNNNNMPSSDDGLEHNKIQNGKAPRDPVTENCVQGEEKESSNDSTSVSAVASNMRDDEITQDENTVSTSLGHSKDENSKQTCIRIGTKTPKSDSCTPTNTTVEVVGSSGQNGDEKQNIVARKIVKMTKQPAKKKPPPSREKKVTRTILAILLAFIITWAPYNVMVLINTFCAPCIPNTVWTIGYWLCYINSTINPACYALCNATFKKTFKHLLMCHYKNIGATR
Protocol: as §1, §2, §3

[6] = target: T5, 5-HT5A (Homo sapiens, UniProt P47898); assay: PDSP primary binding 5-HT5A; conditions: 1.5 h; primary binding, 10,000 nM; last figure of the line = mean of the 4 before it; read-out: 5-HT5A, PDSP raw data, mean
T5 construct: purchased NIMH Psychoactive Drug Screening Program (PDSP)
T5 sequence (P47898 whole entry): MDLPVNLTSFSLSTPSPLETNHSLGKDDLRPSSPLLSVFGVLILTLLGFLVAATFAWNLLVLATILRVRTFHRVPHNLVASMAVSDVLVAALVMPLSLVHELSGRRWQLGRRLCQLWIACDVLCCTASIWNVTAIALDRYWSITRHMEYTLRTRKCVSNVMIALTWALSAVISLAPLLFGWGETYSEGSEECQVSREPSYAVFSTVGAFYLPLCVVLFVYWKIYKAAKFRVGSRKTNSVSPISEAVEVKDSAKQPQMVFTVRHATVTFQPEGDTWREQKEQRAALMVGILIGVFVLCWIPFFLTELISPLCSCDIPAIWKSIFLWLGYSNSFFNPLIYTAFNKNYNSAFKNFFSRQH
Protocol: as §1, §2, §3

[7] = target: T6, H2 (Homo sapiens, UniProt P25021); assay: PDSP primary binding H2; conditions: primary binding, 10,000 nM; last figure of the line = mean of the 4 before it; read-out: H2, PDSP raw data, mean
T6 construct: purchased NIMH Psychoactive Drug Screening Program (PDSP)
T6 sequence (P25021 whole entry): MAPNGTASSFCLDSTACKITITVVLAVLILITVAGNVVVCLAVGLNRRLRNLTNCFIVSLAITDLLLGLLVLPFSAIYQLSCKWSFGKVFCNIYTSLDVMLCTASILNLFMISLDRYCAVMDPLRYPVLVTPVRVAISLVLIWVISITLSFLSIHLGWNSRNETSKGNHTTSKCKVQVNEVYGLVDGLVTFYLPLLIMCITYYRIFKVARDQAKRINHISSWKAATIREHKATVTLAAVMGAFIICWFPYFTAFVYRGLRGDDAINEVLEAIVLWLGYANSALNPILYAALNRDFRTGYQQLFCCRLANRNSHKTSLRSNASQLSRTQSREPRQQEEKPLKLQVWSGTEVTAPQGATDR
Protocol: as §1, §2, §3

[8] = target: T7, D2 (Homo sapiens, UniProt P14416); assay: PDSP primary binding D2; conditions: 1.5 h; primary binding, 10,000 nM; last figure of the line = mean of the 4 before it; read-out: D2, PDSP raw data, mean
T7 construct: purchased NIMH Psychoactive Drug Screening Program (PDSP)
T7 sequence (P14416 whole entry): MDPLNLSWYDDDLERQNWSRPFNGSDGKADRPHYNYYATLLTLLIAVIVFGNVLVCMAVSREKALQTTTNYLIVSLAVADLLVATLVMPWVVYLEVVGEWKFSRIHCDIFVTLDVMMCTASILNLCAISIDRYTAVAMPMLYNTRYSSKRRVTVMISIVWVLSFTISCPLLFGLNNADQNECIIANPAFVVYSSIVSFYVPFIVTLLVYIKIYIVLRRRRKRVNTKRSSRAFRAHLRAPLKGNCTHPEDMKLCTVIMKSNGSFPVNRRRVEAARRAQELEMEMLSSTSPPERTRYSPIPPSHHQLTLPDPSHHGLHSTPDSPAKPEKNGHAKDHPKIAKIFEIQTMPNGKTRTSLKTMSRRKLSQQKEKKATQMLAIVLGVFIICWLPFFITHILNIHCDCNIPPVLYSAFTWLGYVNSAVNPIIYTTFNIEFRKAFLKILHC
Protocol: as §1, §2, §3

[9] = target: T8, NTS1 (Homo sapiens, UniProt P30989); assay: PDSP primary binding NTS1; conditions: primary binding, 10,000 nM; last figure of the line = mean of the 4 before it; read-out: NTS1, PDSP raw data, mean
T8 construct: purchased NIMH Psychoactive Drug Screening Program (PDSP)
T8 sequence (P30989 whole entry): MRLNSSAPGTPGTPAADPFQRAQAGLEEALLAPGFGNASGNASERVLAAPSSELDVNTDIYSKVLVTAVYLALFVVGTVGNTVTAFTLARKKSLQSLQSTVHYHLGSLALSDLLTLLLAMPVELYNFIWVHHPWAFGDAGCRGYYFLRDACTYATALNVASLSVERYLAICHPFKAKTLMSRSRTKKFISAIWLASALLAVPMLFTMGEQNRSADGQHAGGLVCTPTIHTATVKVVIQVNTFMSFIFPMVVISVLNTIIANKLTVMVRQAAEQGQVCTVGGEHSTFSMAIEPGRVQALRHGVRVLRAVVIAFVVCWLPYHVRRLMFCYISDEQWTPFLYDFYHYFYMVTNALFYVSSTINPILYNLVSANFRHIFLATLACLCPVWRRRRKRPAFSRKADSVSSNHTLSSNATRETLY
Protocol: as §1, §2, §3

[10] = target: T9, 5-HT1B (Homo sapiens, UniProt P28222); assay: PDSP primary binding 5-HT1B; conditions: 1.5 h; primary binding, 10,000 nM; last figure of the line = mean of the 4 before it; read-out: 5-HT1B, PDSP raw data, mean
T9 construct: purchased NIMH Psychoactive Drug Screening Program (PDSP)
Protocol: as §1, §2, §3

[11] = target: T10, 5-HT6 (Homo sapiens, UniProt P50406); assay: PDSP primary binding 5-HT6; conditions: 1.5 h; primary binding, 10,000 nM; last figure of the line = mean of the 4 before it; read-out: 5-HT6, PDSP raw data, mean
T10 construct: purchased NIMH Psychoactive Drug Screening Program (PDSP)
Protocol: as §1, §2, §3

[12] = target: peripheral benzodiazepine receptors (PBR) (Rattus norvegicus, UniProt P16257); assay: PDSP radioligand binding at PBR
Sequence of peripheral benzodiazepine receptors (PBR) (P16257 whole entry): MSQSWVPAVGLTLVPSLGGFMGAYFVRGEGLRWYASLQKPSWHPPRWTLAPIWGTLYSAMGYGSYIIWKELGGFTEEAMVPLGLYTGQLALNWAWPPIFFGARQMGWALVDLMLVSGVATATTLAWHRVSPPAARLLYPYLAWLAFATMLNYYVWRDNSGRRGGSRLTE
From the text: The compounds were also screened at PDSP to determine any binding with peripheral benzodiazepine receptors (PBR). A number of biological processes are associated with PBR. The most prevalent are transportation of anions for mitochondrial transmembrane potential, biosynthesis of heme, regulation of neurological damage, proliferation, cell death (apoptosis), as well as regulation of steroidogenesis. The test compounds were screened in the primary binding assay to determine the % inhibition at PBR. […] These compounds were then subjected to a secondary screening to determine the Ki (nM) value for PBR receptors.
as §2, §3

[13] = 1.5 h, primary binding, 10,000 nM, last figure of the line = mean of the 4 before it, some tables list PBR twice, read-out: PBR, PDSP raw data, mean
[14] = at 10,000 nM, N = 5, read-out: Binding Affinity at PBR % Inhibition (Primary)

| Compound | inhibition at 10 µM [1] [%] | AMPA, PDSP raw data, mean [2] [%] | inhibition at 10 µM [3] [%] | HERG, PDSP raw data, mean [4] [%] | inhibition at 10 µM [5] [%] | inhibition at 10 µM [6] [%] | inhibition at 10 µM [7] [%] | inhibition at 10 µM [8] [%] | inhibition at 10 µM [9] [%] | inhibition at 10 µM [10] [%] | inhibition at 10 µM [11] [%] | inhibition at 10 µM [12, 13] [%] | Ki [12] [nM] | inhibition at 10 µM [12, 14] [%] | Ki ([12]; N = 2, read-out: Binding Affinity at PBR Ki (Secondary Screen)) [nM] |
| --- | --- | --- | --- | --- | --- | --- | --- | --- | --- | --- | --- | --- | --- | --- | --- |
| C[C@H]1N=C(c2ccccc2F)c2cc(-c3ccccc3)ccc2-n2cnc(C(=O)N(C)C)c21 [Compound 5, (R)-6-(2′-Fluorophenyl)-N,N,4-trimethyl-8-phenyl-4H-benzo[f]imidazo[1,5-a][1,4]diazepine-3-carboxamide] | -5.95 | 7.77 | 1.99 | -0.48 | 15.4 | 53.6 | -1.42 | 0.27 | -16.7 | 11.8 | 24.6 | 22.3 | – | – | – |
| C#Cc1ccc2c(c1)C(c1ccccc1Cl)=N[C@H](C)c1c(C(=O)NC)ncn1-2 [Compound 21, (R)-6-(2′-Chlorophenyl)-8-ethynyl-N,4-dimethyl-4H-benzo[f]imidazo[1,5-a][1,4]diazepine-3-carboxamide] | 3.88 | -31.95 | 14.4 | -5.73 | 0.22 | 2.76 | -2.07 | -4.19 | -25.2 | -0.39 | -8.24 | 5.68 | – | – | – |
| C#Cc1ccc2c(c1)C(c1ccccn1)=N[C@@H](C)c1c(C(=O)NC)ncn1-2 [Compound 23, (S)-8-Ethynyl-N,4-dimethyl-6-(pyridin-2′-yl)-4H-benzo[f]imidazo[1,5-a][1,4]diazepine-3-carboxamide] | -3.67 | -17.23 | 4.42 | -4.24 | -6.16 | -2.76 | -23.3 | -4.79 | -5.89 | -3.82 | 18.1 | 34.9 | – | – | – |
| C#Cc1ccc2c(c1)C(c1ccccc1Cl)=N[C@H](C)c1c(C(=O)N(C)CC)ncn1-2 [Compound 29] | -2.89 | -3.32 | -3.3 | -1.55 | 3.03 | -3.73 | -0.28 | -1.58 | -19.5 | -3.99 | 14.9 | -10.9 | – | – | – |
| C#Cc1ccc2c(c1)C(c1ccccn1)=N[C@@H](C)c1c(C(=O)N(C)C)ncn1-2 [Compound 31, (S)-8-Ethynyl-N,N,4-trimethyl-6-(pyridin-2′-yl)-4H-benzo[f]imidazo[1,5-a][1,4]diazepine-3-carboxamide] | -2.25 | -10.56 | 6.85 | 0.95 | 3.03 | -7.46 | -12.1 | 3.47 | 0.28 | -0.27 | 18.1 | 4.44 | – | – | – |
| C#Cc1ccc2c(c1)C(c1ccccc1F)=N[C@H](C)c1c(C(=S)N(C)C)ncn1-2 [Compound 33, (R)-8-Ethynyl-6-(2′-fluorophenyl)-N,N,4-trimethyl-4H-benzo[f]imidazo[1,5-a][1,4]diazepine-3-carbothioamide] | -5.95 | 7.77 | 1.99 | -0.48 | 15.4 | 53.6 | -1.42 | 0.27 | -16.7 | 11.8 | 24.6 | 22.3 | 1710 | 66.4 ± 3.3 | – |
| CCc1noc(-c2ncn3c2[C@@H](C)N=C(c2ccccc2F)c2cc(-c4ccccc4)ccc2-3)n1 [Compound 35, (R)-3-Ethyl-5-(6-(2′-fluorophenyl)-4-methyl-8-phenyl-4H-benzo[f]imidazo[1,5-a][1,4]diazepin-3-yl)-1,2,4-oxadiazole] | 4.18 | -5.68 | 17.9 | 37.34 | -7.95 | 19.5 | -10.1 | 7.47 | -32.6 | 11.6 | 10.3 | 71.8 | – | 71.8 ± 10.5 | 1110 ± 24.5 |
| CCc1noc(-c2ncn3c2[C@@H](C)N=C(c2ccccc2F)c2cc(Cl)ccc2-3)n1 [Compound 36, (R)-5-(8-Chloro-6-(2′-fluorophenyl)-4-methyl-4H-benzo[f]imidazo[1,5-a][1,4]diazepin-3-yl)-3-ethyl-1,2,4-oxadiazole] | -6.7 | -24.14 | 10.2 | -1.15 | -3.62 | -1.84 | 5.61 | 3.17 | -16.9 | 3.67 | 10.8 | 57.2 | 982 ± 405 | 57.2 ± 10.3 | – |
| CC(C)c1noc(-c2ncn3c2[C@@H](C)N=C(c2ccccc2F)c2cc(Cl)ccc2-3)n1 [Compound 37, (R)-5-(8-Chloro-6-(2′-fluorophenyl)-4-methyl-4H-benzo[f]imidazo[1,5-a][1,4]diazepin-3-yl)-3-isopropyl-1,2,4-oxadiazole] | 3.29 | 20.59 | 12.9 | 20.73 | -19.3 | -2.71 | 1.66 | 18.2 | -16.3 | 10.4 | -1.65 | 89.6 | 838 ± 135 | 88 ± 1.32 | – |
